Measured values as given in patent publication US20100022559A1, “BISOXIMES AS FUNGICIDES” (BAYER CROPSCIENCE AG, priority 2006, published 2010).

Assay: logP determination by HPLC on a reversed-phase column (C 18), EEC Directive 79/831 Annex V.A8
Format: physicochemical
Description: The stated logP values were determined in accordance with EEC Directive 79/831 Annex V.A8 by HPLC (high performance liquid chromatography) on a reversed-phase column (C 18). Temperature: 43° C.

[1] = method marker [b], isomer A / isomer B / isomer mixture as noted in the cell
[2] = method marker [a] (footnote not shown), isomer A / isomer B / isomer mixture as noted in the cell

CC(=NOCCCCCCON=C(C)c1cccc(C)n1)c1cccc(C(F)(F)F)c1 [compound 387]
logP (value marked [b]): 6.51^[b]

C=C(CON=C(C)c1ccc(C)nc1)CON=C(C)c1ccc(C)nc1 [compound 22]
logP [1]: 1.37^[b]

CC(=NOCC(C)CON=C(C)c1cc(-c2ccccc2)ccn1)c1cc(-c2ccccc2)ccn1 (stereo not shown) [Compound 119]
logP [2]: 6.33^[a]

CC(=NOc1ncnc(ON=C(C)c2cccc(C)n2)c1C)c1cccc(C)n1 [compound 728]
logP (method marked [b] in Table 1): 2.34^[b] | logP (method marked [c] in Table 1): 3.45^[c]

CCOC(=O)c1cccc(C(C)=NOCC(C)CON=C(C)c2cccc(C(=O)OCC)n2)n1 (stereo not shown) [compound 258]
logP (value marked [a]): 5.03^[a]

C=C(CON=C(C)c1ccccn1)CON=C(C)c1ccccn1 [compound 60]
logP [1]: 3.00^[b]

CC1=NOC(CON=C(C)c2cccc(C)n2)(CON=C(C)c2cccc(C)n2)C1 (stereo not shown) [compound 596]
logP (method marked [b] in Table 1): 2.20^[b]

COc1ccc(C(C)=NOCC(C)(C)CON=C(C)c2cc3ccccc3o2)cc1OC [compound 415]
logP (value marked [b]): 5.42^[b]

C=C(CON=C(C)c1ccc(Cl)nc1)CON=C(C)c1ccc(Cl)nc1 [Compound 57]
logP [1]: 4.38^[b]

CC(=NOCC#CCON=C(C)c1cccc(C)n1)c1cccc(C)n1 [Compound 706]
logP (method marked [b] in Table 1): 3.12^[b]

CC(=NOCC(C)CON=C(c1ccccc1)c1ncccc1C)c1cccc(C)n1 (stereo not shown) [compound 421]
logP (value marked [b]): 4.15^[b]

Cc1cc(C)nc(/C(N)=N/OCc2ccccc2CO/N=C(\N)c2nc(C)cc(C)n2)n1 [compound 700]
logP (method marked [b] in Table 1): 2.23^[b]

CC(=NOCCCON=C(C)c1cccc(C(C)C)n1)c1cccc(C(C)C)n1 [compound 230]
logP [2]: 7.36^[a]

CC(=NOCC(O)CON=C(C)c1cccc(C)n1)c1cccc(C)n1 (stereo not shown) [compound 293]
logP (value marked [b]): 1.46^[b]

CC(=NOCCCCON=C(C)c1cccc(C)n1)c1cccc(C)n1 [compound 6]
logP [1]: 3,16^[b]

CON=C(CON=C(C)c1cccc(C)n1)CON=C(C)c1cccc(C)n1 [compound 113]
logP [1]: 3.26^[b]

CC(=NOCCCON=C(C)c1ccc2c(n1)CCC2)c1ccc2c(n1)CCC2 [Compound 302]
logP (value marked [a]): 3.28^[a]

Cc1cccc(C(C#N)=NOCC(C)CON=C(C#N)c2cccc(C)n2)n1 (stereo not shown) [compound 827]
logP (value marked [a]): 4.20^[a]

CC(=NOCC(C)(O)CON=C(C)c1ccccn1)c1ccccn1 (stereo not shown) [compound 2]
logP [2]: 1.73^[a]

CCC(CC)(CON=C(C)c1ccc(C)c(C)n1)CON=C(C)c1ccc(C)c(C)n1 [Compound 810]
logP (value marked [b]): 6.50^[b] | logP (value marked [c]): 7.36^[c]

CC(=NOCC(C)(C)CON=C(C)c1cccc(-c2cc(Cl)cc(Cl)c2)n1)c1cccc(-c2cc(Cl)cc(Cl)c2)n1 [compound 578]
logP (method marked [a] in Table 1): 7.36^a]

C=C(CON=C(Cl)c1cccc(C)n1)CON=C(Cl)c1cccc(C)n1 [compound 696]
logP (method marked [b] in Table 1): 4.01^[b]

CC(=NOC1CCC(ON=C(C)c2cccc(C3CC3)n2)C1)c1cccc(C2CC2)n1 (mixture of isomers) [compound 813]
logP (value marked [a]): 7.36^[a]

Cc1cc(C)nc(/C(N)=N/OCc2cccc(CO/N=C(\N)c3cc(C)cc(C)n3)c2)c1 [compound 726]
logP (method marked [b] in Table 1): 3.63^[b]

CC(=NOC1CCCC(ON=C(C)c2cccc(C)n2)C1)c1cccc(C)n1 (mixture of isomers) [compound 801]
logP (value marked [a]): 4.96^[a]

CC(=NOCC1(CON=C(C)c2ccc(C)c(C)n2)CC(C(C)C)=NO1)c1ccc(C)c(C)n1 (stereo not shown) [compound 627]
logP (method marked [b] in Table 1): 3.06^[b]

CC(=NOCCCCCCON=C(C)c1sc(C)nc1C)c1cccc(C)n1 (single isomer, unassigned) [compound 543]
logP (method marked [b] in Table 1): 4.74^[b] (isomer B)

COC(CON=C(C)c1ccc(C)c(C)n1)CON=C(C)c1ccc(C)c(C)n1 (stereo not shown) [Compound 321]
logP (value marked [b]): 1.95^[b] | logP (value marked [c]): 5.06^[c]

CC(=NOCC1(CON=C(C)c2ccc(C)c(C)n2)CC(CC(C)C)=NO1)c1ccc(C)c(C)n1 (stereo not shown) [compound 630]
logP (method marked [b] in Table 1): 3.70^[b]

CC(=NOCCCCON=C(C)c1cccc(C)n1)c1ccc(C)nc1 [compound 382]
logP (value marked [b]): 1.90^[b]

CC(=NOCC(C)CON=C(C)c1cncc(C)c1)c1cncc(C)c1 (stereo not shown) [compound 166]
logP [2]: 1.78^a]

CCC1=NOC(CON=C(C)c2cc(C)cc(C)n2)(CON=C(C)c2cc(C)cc(C)n2)C1 (stereo not shown) [Compound 639]
logP (method marked [b] in Table 1): 1.88^[b]

CC(=NOCc1cccc(CON=C(C)c2ccc(C)c(C)n2)n1)c1ccc(C)c(C)n1 [compound 741]
logP (method marked [b] in Table 1): 2.30^[b] | logP (method marked [c] in Table 1): 5.08^[c]

CC(=NOCCCCCCON=C(C)c1cccc(C(C)C)n1)c1cccc(C)n1 [compound 465]
logP (value marked [b]): 7.12^[b]

CCc1cccc(C(C)=NOCC(C)(C)CON=C(C)c2cccc(C)n2)n1 [Compound 370]
logP (value marked [b]): 5.78^[b]

CC(=NOCC(C)(C)CON=C(C)c1cccc(CC(C)C)n1)c1cccc(C)n1 [Compound 367]
logP (value marked [b]): 7.07^[b]

CC(=NOC[Si](C)(C)CON=C(C)c1cccc(C)n1)c1cccc(C)n1 [Compound 292]
logP (value marked [a]): 4.50^[a]

CCC(=NOc1ncnc(ON=C(C)c2cccc(C)n2)c1C)c1ncccc1C [compound 739]
logP (method marked [b] in Table 1): 2.18^[b]

C/C(=N\OCC(C)(C)CCl)c1cccc(C)n1 [VI-1, (1E)-1-(6-methylpyridin-2-yl)ethanone O-(3-chloro-2,2-dimethylpropyl)oxime]
chromatographic logP (reversed-phase HPLC column (C 18), HCO2H, HPLC reversed-phase column (C 18), 43° C., read-out: logP (HCO2H)): 3.76

C=C(CON=C(C)c1cncc(C)c1)CON=C(C)c1cccc(C)n1 [compound 361]
logP (value marked [b]): 2.20^[b]

C=C(CON=C(C)c1cccc(C)n1)CON=C(C)c1cccc2ccccc12 [compound 406]
logP (value marked [b]): 5.02^[b]

CC(=NOCC(C)CON=C(C)c1ccc(C)o1)c1ccc(C)o1 (mixture of isomers) [compound 585]
logP (method marked [a] in Table 1): 4.70^[a]

CC(=NOC/C=C/CON=C(C)c1nc(C)c(C)s1)c1nc(C)c(C)s1 (single isomer, unassigned) [compound 766]
logP (value marked [b]): 5.08^[b] (isomer A)

CCCC(=NOCCCCON=C(C)c1cccc(C)n1)c1ncccc1C (single isomer, unassigned) [Compound 327]
logP (value marked [b]): 3.61^[b] (isomer A)

CC(=NOCC(C)CON=C(C)c1cccc(Cc2ccccc2)n1)c1cccc(C)n1 (stereo not shown) [Compound 420]
logP (value marked [b]): 6.09^[b]

C=C(CON=C(C)c1cccc(C)n1)CON=C(N)c1nc(C)cc(C)n1 [compound 192]
logP [1]: 1.97^[b]

CC(=NOCC(C)CON=C(C)c1cccc(C)n1)c1cccnc1 (stereo not shown) [compound 438]
logP (value marked [b]): 2.34^[b]

C=C(CON=C(C)c1cccc(C)n1)CON=C(C)c1ncccc1Cl (single isomer, unassigned) [compound 140]
logP [1]: 4.40^[b] (isomer A)

C=C(CON=C(C)c1cccc(C)n1)CON=C(N)c1ncc(F)cc1F [compound 242]
logP [1]: 2.48^[b)

C=C(CON=C(C)c1cccc(C)n1)CON=C(N)c1ccc(C)c(C)n1 [compound 808]
logP (value marked [a]): 2.38^[a]

CC(=NOCCCCCCON=C(C)c1ccnc(C)n1)c1cccc(C)n1 [compound 348]
logP (value marked [b]): 4.51^[b]

CC(=NOCC1(CON=C(C)c2ccc(C)c(C)n2)CC(c2ccccc2)=NO1)c1ccc(C)c(C)n1 (stereo not shown) [compound 632]
logP (method marked [b] in Table 1): 3.61^[b]

CC(=NOc1ncnc(ON=C(C)c2cccc(C)n2)c1F)c1cccc(C)n1 [compound 727]
logP (method marked [b] in Table 1): 3.13^[b]

Cc1cccnc1C(Cc1ccccc1)=NOCCCON=C(Cc1ccccc1)c1ncccc1C (single isomer, unassigned) [Compound 97]
logP [2]: 4.89^[a] (isomer A)
